Results as given in ChEMBL document CHEMBL6083275, “Discovery and evaluation of HW161023 as a potent and orally active AAK1 inhibitor” (Bioorg Med Chem Lett, 2024).

Tests used:
[1] = Half-life in C57BL/6J mouse at 10 mg/kg, po; format: ADME, organism-based; conditions: in vivo
[2] = Cmax in C57BL/6J mouse at 10 mg/kg, po; format: ADME, organism-based; conditions: in vivo
[3] = Tmax in C57BL/6J mouse at 10 mg/kg, po; format: ADME, organism-based; conditions: in vivo
[4] = AUC (0 to 24 hrs) in C57BL/6J mouse at 10 mg/kg, po; format: ADME, organism-based; conditions: in vivo
[5] = molecular target: AP2-associated protein kinase 1 (Homo sapiens, UniProt Q2M2I8); test: Inhibition of AAK1 (unknown origin)
Chain of AP2-associated protein kinase 1 (Q2M2I8 whole entry): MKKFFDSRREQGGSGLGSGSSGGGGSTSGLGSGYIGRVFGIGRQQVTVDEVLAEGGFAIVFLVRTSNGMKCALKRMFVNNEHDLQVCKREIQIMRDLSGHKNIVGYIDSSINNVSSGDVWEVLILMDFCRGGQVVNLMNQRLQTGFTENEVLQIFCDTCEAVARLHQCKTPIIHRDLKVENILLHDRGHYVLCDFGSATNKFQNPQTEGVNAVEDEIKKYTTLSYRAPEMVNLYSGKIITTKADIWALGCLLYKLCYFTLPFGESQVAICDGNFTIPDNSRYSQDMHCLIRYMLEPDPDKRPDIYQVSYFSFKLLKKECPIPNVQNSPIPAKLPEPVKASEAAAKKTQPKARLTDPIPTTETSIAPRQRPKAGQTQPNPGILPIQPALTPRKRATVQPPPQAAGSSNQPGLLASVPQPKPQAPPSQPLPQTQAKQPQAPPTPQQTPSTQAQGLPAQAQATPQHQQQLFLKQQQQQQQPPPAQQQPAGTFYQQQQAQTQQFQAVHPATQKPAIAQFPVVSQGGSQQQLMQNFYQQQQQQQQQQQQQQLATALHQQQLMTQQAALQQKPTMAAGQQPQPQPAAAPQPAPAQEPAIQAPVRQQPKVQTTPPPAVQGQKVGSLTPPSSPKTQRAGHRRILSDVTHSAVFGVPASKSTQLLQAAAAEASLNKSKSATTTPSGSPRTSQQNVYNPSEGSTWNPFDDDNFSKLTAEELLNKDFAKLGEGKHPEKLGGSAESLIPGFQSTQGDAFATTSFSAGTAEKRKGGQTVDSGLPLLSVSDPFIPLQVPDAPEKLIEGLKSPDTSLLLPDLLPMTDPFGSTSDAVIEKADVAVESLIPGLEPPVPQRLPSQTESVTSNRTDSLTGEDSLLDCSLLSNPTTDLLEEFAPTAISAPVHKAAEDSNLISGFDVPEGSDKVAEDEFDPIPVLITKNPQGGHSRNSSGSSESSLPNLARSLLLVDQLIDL

[6] = Protein binding in dog plasma assessed as unbound fraction; format: ADME, cell-free, Canis lupus familiaris
[7] = Clearance in rat at 1 mg/kg, iv; format: ADME, organism-based; conditions: in vivo
[8] = Protein binding in human plasma assessed as unbound fraction; format: ADME, cell-free
CYP2C9 = CYP2C9 (Homo sapiens, UniProt P11712); test: Inhibition of CYP2C9 (unknown origin) at 10 uM relative to control; format: ADME
Chain of CYP2C9 (P11712 whole entry): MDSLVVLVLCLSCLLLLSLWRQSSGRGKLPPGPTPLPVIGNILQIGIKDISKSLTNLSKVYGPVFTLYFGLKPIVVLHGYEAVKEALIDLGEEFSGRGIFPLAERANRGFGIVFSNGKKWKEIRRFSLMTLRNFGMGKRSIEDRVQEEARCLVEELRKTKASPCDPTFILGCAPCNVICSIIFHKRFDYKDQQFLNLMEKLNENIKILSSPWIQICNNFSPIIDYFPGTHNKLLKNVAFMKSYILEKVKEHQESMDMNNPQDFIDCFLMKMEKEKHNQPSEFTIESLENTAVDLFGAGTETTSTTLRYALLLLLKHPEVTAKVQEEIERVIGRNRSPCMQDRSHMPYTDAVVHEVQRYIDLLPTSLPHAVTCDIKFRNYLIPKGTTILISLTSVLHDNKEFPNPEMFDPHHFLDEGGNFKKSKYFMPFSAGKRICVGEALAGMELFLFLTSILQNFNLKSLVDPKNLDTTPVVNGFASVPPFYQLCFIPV

[9] = Oral bioavailability in C57BL/6J mouse at 10 mg/kg; format: ADME, organism-based; conditions: in vivo
[10] = Clearance in C57BL/6J mouse at 1 mg/kg, iv; format: ADME, organism-based; conditions: in vivo
[11] = AUC (0 to 24 hrs) in dog at 5 mg/kg, po; format: ADME, organism-based, Canis lupus familiaris; conditions: in vivo
[12] = Protein binding in mouse plasma assessed as unbound fraction; format: ADME, cell-free
[13] = molecular target: Voltage-gated inwardly rectifying potassium channel KCNH2 (Homo sapiens, UniProt Q12809); test: Inhibition of human ERG by patch clamp assay; format: toxicity
Chain of Voltage-gated inwardly rectifying potassium channel KCNH2 (Q12809 whole entry): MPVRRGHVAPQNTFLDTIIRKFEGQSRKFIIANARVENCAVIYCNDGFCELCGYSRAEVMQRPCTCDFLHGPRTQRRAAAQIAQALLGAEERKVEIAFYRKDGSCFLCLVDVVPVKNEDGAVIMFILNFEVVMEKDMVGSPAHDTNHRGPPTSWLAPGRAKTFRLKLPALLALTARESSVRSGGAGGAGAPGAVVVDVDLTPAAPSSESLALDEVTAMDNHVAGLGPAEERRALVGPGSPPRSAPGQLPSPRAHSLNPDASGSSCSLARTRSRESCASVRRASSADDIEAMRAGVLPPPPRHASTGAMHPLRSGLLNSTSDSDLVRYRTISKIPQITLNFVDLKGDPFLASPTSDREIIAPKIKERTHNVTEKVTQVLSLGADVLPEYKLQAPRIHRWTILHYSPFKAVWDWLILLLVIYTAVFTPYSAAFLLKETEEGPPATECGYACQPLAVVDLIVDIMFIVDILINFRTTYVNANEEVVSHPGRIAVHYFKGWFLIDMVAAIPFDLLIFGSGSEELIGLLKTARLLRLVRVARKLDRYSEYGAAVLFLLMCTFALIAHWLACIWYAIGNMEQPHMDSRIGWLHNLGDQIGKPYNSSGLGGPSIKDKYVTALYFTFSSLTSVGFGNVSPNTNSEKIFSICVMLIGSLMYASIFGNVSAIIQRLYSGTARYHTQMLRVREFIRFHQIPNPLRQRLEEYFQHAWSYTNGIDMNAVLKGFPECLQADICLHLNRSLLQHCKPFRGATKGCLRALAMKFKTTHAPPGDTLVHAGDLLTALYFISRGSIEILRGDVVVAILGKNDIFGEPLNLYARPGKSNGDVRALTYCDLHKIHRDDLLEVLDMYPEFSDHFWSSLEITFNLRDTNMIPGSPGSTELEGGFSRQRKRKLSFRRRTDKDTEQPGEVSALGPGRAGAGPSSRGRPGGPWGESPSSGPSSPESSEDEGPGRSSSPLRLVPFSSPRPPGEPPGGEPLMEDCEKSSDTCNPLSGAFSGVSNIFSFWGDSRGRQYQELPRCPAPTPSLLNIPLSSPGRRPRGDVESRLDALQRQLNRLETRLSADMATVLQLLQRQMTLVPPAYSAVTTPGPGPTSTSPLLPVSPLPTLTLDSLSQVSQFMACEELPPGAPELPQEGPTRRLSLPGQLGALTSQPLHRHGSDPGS

[14] = Clearance in dog at 1 mg/kg, iv; format: ADME, organism-based, Canis lupus familiaris; conditions: in vivo
[15] = Tmax in rat at 10 mg/kg, po; format: ADME, organism-based; conditions: in vivo
[16] = molecular target: T1, Cyclin-G-associated kinase (Homo sapiens) (UniProt O14976); test: Inhibition of wildtype GAK (unknown origin) at 1 uM relative to control
T1 sequence (whole entry): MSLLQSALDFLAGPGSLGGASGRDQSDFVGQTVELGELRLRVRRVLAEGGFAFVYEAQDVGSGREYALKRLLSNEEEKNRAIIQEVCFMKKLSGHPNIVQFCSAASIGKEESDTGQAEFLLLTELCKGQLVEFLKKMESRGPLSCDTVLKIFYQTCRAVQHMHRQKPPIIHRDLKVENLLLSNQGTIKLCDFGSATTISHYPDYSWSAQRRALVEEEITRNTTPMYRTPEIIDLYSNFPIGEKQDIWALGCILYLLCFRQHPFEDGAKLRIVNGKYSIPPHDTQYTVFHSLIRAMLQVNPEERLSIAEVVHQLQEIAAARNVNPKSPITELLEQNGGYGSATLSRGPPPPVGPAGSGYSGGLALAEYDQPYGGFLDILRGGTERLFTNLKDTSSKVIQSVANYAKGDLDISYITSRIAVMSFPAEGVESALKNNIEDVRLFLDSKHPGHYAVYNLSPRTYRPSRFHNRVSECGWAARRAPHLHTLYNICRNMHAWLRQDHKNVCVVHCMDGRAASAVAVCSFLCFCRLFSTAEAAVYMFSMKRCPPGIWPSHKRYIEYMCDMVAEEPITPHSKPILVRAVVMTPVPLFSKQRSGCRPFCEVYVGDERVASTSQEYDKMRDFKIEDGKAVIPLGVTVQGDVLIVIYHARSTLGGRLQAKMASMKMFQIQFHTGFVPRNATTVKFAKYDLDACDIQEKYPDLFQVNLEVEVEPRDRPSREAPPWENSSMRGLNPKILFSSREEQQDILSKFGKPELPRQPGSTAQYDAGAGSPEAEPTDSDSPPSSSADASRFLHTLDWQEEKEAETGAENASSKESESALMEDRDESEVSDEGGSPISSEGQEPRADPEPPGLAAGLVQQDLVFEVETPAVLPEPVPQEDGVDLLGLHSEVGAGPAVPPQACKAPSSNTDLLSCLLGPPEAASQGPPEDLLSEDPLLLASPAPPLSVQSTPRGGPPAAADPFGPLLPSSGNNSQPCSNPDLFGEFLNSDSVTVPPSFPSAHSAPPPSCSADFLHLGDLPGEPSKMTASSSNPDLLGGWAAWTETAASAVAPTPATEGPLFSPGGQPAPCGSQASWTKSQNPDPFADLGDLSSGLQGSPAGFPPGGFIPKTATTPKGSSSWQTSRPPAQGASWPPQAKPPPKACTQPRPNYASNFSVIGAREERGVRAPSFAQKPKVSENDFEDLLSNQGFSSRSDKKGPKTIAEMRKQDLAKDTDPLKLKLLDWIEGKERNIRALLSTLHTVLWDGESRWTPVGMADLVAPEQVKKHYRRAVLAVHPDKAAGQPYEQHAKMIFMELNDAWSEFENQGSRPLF

[17] = AUC (0 to 24 hrs) in rat at 10 mg/kg, po; format: ADME, organism-based; conditions: in vivo
[18] = Metabolic stability in hepatocytes (unknown origin) assessed as half-life; format: ADME, cell-based, Hepatocyte
[19] = Apparent volume of distribution in rat at 1 mg/kg, iv; format: ADME, organism-based; conditions: in vivo, read-out: Vz
[20] = Half-life in dog at 1 mg/kg, iv; format: ADME, organism-based, Canis lupus familiaris; conditions: in vivo
[21] = Metabolic stability in rat liver microsomes assessed as half-life; format: ADME, Microsome
[22] = Oral bioavailability in rat at 10 mg/kg; format: ADME, organism-based; conditions: in vivo
CYP3A4 [23] = molecular target: T2, CYP3A4 (Homo sapiens, UniProt P08684); test: Inhibition of CYP3A4 (unknown origin) using midazolam as substrate at 10 uM relative to control; format: ADME; conditions: probe midazolam
T2 sequence (P08684 whole entry): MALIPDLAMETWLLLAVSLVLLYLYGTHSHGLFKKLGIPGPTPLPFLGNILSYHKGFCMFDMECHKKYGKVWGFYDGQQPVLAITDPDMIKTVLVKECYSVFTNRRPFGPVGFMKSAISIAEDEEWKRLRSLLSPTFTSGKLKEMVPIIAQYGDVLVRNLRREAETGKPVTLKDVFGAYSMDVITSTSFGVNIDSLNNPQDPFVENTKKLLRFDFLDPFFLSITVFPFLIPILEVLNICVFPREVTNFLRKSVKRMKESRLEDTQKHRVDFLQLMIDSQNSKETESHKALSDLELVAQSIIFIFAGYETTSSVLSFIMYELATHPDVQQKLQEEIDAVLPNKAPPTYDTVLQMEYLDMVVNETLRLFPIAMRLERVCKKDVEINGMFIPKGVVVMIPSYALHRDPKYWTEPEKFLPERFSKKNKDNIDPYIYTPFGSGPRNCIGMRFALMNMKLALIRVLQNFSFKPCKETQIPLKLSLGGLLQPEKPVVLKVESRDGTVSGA

[24] = Half-life in rat at 1 mg/kg, iv; format: ADME, organism-based; conditions: in vivo
[25] = Apparent volume of distribution in dog at 1 mg/kg, iv; format: ADME, organism-based, Canis lupus familiaris; conditions: in vivo, read-out: Vz
[26] = molecular target: Citron Rho-interacting kinase (Homo sapiens) (UniProt O14578); test: Inhibition of wildtype CRIK (unknown origin) at 1 uM relative to control
[27] = Metabolic stability in dog liver microsomes assessed as half-life; format: ADME, Canis lupus familiaris, Microsome
[28] = Oral bioavailability in dog at 5 mg/kg; format: ADME, organism-based, Canis lupus familiaris; conditions: in vivo
[29] = Half-life in C57BL/6J mouse at 1 mg/kg, iv; format: ADME, organism-based; conditions: in vivo
CYP3A4 [30] = molecular target: T2, CYP3A4; test: Inhibition of CYP3A4 (unknown origin) using testosterone as substrate at 10 uM relative to control; format: ADME; conditions: probe testosterone
[31] = molecular target: T3, cGMP-dependent protein kinase 2 (Homo sapiens) (UniProt Q13237); test: Inhibition of wildtype CGK2 (unknown origin) at 1 uM relative to control
T3 sequence (whole entry): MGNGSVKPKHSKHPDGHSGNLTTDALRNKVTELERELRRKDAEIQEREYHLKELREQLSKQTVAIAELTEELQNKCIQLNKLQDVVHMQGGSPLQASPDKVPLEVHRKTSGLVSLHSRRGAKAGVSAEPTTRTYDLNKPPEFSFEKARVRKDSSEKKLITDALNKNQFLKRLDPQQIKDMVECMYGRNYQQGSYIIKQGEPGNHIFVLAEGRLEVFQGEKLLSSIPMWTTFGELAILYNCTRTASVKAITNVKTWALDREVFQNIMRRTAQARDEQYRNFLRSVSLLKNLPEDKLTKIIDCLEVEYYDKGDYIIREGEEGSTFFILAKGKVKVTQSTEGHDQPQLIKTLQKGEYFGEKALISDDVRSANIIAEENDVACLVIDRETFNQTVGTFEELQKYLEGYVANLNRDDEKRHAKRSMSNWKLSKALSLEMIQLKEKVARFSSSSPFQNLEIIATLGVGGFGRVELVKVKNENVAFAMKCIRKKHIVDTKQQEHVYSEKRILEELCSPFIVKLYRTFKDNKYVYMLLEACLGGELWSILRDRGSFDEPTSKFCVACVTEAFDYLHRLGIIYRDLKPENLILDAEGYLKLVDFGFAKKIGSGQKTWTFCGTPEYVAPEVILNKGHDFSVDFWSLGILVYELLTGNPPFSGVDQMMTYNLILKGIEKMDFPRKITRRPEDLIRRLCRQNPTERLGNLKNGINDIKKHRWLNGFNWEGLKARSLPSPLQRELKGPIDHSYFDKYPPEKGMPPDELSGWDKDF

[32] = molecular target: MAP kinase-interacting serine/threonine-protein kinase 2 (Homo sapiens) (UniProt Q9HBH9); test: Inhibition of wildtype MNK2 (unknown origin) at 1 uM relative to control
Chain of MAP kinase-interacting serine/threonine-protein kinase 2 (Homo sapiens) (Q9HBH9 whole entry, looked up): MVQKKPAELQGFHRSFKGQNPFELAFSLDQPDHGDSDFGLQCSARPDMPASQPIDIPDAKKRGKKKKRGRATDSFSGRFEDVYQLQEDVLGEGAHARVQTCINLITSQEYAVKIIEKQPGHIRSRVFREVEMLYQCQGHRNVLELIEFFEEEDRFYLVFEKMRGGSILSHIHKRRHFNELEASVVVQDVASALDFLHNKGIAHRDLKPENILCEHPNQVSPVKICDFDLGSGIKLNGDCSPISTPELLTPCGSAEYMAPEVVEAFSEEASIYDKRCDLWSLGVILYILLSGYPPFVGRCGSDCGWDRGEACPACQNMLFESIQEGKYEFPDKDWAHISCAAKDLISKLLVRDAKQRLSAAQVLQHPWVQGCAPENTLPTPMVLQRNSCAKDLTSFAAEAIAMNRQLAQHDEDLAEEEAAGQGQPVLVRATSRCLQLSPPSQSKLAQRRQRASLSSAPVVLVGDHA

[33] = Apparent volume of distribution in C57BL/6J mouse at 1 mg/kg, iv; format: ADME, organism-based; conditions: in vivo, read-out: Vz
[34] = molecular target: BMP-2-inducible protein kinase (Homo sapiens) (UniProt Q9NSY1); test: Inhibition of wildtype BIKE (unknown origin) at 1 uM relative to control
[35] = Metabolic stability in human liver microsomes assessed as half-life; format: ADME, Microsome
[36] = Metabolic stability in mouse liver microsomes assessed as half-life; format: ADME, Microsome
Rattus norvegicus = test: Analgesic activity in sciatic nerved CCI-induced neuropathic pain rat model assessed as reduction in mechanical hyperalgesia at 10 mg/kg, po administered from day 14 post CCI-surgery and measured after 3.5 to 5.5 hrs by Von Frey test; format: functional, organism-based; conditions: time 3.5-5.5 hrs
CYP2D6 = CYP2D6 (Homo sapiens, UniProt P10635); test: Inhibition of CYP2D6 (unknown origin) at 10 uM relative to control; format: ADME
Chain of CYP2D6 (P10635 whole entry): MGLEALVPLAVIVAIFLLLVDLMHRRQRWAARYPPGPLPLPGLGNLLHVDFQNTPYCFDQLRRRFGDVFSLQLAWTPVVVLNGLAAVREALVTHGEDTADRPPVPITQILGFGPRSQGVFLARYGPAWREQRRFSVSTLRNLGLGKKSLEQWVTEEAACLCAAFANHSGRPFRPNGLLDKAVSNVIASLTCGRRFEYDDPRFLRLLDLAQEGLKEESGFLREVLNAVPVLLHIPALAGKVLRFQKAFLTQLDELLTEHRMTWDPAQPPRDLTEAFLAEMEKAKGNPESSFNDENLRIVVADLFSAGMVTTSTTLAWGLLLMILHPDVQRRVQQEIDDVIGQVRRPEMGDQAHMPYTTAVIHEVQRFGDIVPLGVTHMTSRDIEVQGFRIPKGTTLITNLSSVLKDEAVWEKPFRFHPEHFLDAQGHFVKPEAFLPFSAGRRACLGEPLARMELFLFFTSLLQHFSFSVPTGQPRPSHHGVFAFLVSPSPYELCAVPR

[37] = molecular target: MAP kinase-interacting serine/threonine-protein kinase 1 (Homo sapiens) (UniProt Q9BUB5); test: Inhibition of wildtype MNK1 (unknown origin) at 1 uM relative to control
Chain of MAP kinase-interacting serine/threonine-protein kinase 1 (Homo sapiens) (Q9BUB5 whole entry, looked up): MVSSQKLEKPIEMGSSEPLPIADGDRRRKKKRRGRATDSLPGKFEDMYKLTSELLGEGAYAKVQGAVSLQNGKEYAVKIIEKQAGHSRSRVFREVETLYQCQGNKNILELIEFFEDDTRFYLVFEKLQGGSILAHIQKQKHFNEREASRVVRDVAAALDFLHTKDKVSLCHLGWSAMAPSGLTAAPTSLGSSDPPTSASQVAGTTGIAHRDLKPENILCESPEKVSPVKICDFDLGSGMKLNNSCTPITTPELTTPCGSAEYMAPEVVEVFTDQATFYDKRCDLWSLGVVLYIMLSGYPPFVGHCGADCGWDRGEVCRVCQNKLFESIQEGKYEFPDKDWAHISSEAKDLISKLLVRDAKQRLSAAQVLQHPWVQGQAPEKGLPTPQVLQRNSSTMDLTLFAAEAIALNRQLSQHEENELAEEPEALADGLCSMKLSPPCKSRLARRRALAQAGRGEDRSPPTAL

[38] = Cytotoxicity against human HepG2 cells; format: toxicity, cell-based
[39] = Protein binding in rat plasma assessed as unbound fraction; format: ADME, cell-free
[40] = Tmax in dog at 5 mg/kg, po; format: ADME, organism-based, Canis lupus familiaris; conditions: in vivo
[41] = AUC (0 to 24 hrs) in C57BL/6J mouse at 1 mg/kg, iv; format: ADME, organism-based; conditions: in vivo
[42] = Ratio of AUC (0 to 24 hrs) in C57BL/6J mouse brain to plasma; format: ADME; conditions: read-out: Ratio AUC

CC(C)C[C@](C)(N)COc1ccc(-c2ccnc(C(F)F)c2)c2cncn12
half-life [1]: 192 min
Cmax [2]: 407 ng/mL
Tmax [3]: 0.8 h
AUC(0-t) [4]: 2340 ng·h/mL

CC(C)C[C@](C)(N)COc1ccc(-c2ccnc(C(F)F)c2)n2cnnc12
IC50 [5]: > 20 nM

CC(C)C[C@](C)(N)COc1ccc(-c2ccnc(C(F)F)c2)c2nccn12
fraction unbound [6]: 0.129
clearance [7]: 31.7 mL/min/kg
fraction unbound [8]: 0.193
inhibition at 10 µM (CYP2C9): < 20%
bioavailability [9]: 103%
clearance [10]: 11.7 mL/min/kg
AUC(0-t) [11]: 2270 ng·h/mL
fraction unbound [12]: 0.128
IC50 [13]: 11.9 µM
clearance [14]: 48.3 mL/min/kg
Tmax [15]: 5.3 h
inhibition [16]: 97%
AUC(0-t) [17]: 4640 ng·h/mL
half-life [18]: 2780 min
Vd [19]: 25 L/kg
half-life [20]: 198 min
half-life [21]: 35 min
bioavailability [22]: 118%
inhibition at 10 µM (CYP3A4 [23]): < 20%
Tmax [3]: 1.2 h
half-life [24]: 618 min
Vd [25]: 14 L/kg
inhibition [26]: 60%
half-life [27]: 184 min
bioavailability [28]: 140%
half-life [29]: 1020 min
inhibition at 10 µM (CYP3A4 [30]): < 20%
inhibition [31]: 65%
inhibition [32]: 88%
Vd [33]: 18 L/kg
inhibition [34]: 39%
half-life [35]: 88 min
half-life [36]: 43 min
Activity (Rattus norvegicus): Active; Compound Exhibited Comparable Efficacy To Lx9211
inhibition at 10 µM (CYP2D6): < 20%
inhibition [37]: 91%
IC50 [38]: 51 µM
fraction unbound [39]: 0.185
Tmax [40]: 1 h
AUC(0-t) [4]: 9150 ng·h/mL

CC(C)C[C@](C)(N)COc1ccc(-c2ccnc(C(F)F)c2)n2ccnc12
IC50 [5]: > 20 nM

CC(C)C[C@](C)(N)COc1ccc(-c2ccnc(C(F)F)c2)nc1C(F)F [PILAVAPADIN]
fraction unbound [6]: 0.0417
clearance [7]: 28.3 mL/min/kg
IC50 [5]: 5 nM
fraction unbound [8]: 0.0875
inhibition at 10 µM (CYP2C9): < 20%
bioavailability [9]: 103%
clearance [10]: 12.2 mL/min/kg
AUC(0-t) [11]: 4740 ng·h/mL
fraction unbound [12]: 0.02
IC50 [13]: 3.4 µM
half-life [1]: 1180 min
clearance [14]: 20 mL/min/kg
Tmax [15]: 6.7 h
AUC(0-t) [17]: 3790 ng·h/mL
Vd [19]: 25 L/kg
half-life [20]: 192 min
half-life [21]: 96.5 min
AUC(0-t) [41]: 892 ng·h/mL
bioavailability [22]: 77%
inhibition at 10 µM (CYP3A4 [23]): < 20%
Cmax [2]: 718 ng/mL
Tmax [3]: 1.17 h
half-life [24]: 594 min
Vd [25]: 5.3 L/kg
half-life [27]: 66.5 min
bioavailability [28]: 116%
half-life [29]: 1040 min
inhibition at 10 µM (CYP3A4 [30]): < 20%
Vd [33]: 18 L/kg
half-life [35]: 132 min
half-life [36]: 156 min
inhibition at 10 µM (CYP2D6): < 20%
Kp [42]: 13.9
IC50 [38]: 9.5 µM
fraction unbound [39]: 0.0894
Tmax [40]: 2.3 h
AUC(0-t) [4]: 9150 ng·h/mL
